Assay [1] has as its target T1, Inhibitor of nuclear factor kappa-B kinase subunit beta (Homo sapiens) (UniProt O14920).
T1 sequence (whole entry): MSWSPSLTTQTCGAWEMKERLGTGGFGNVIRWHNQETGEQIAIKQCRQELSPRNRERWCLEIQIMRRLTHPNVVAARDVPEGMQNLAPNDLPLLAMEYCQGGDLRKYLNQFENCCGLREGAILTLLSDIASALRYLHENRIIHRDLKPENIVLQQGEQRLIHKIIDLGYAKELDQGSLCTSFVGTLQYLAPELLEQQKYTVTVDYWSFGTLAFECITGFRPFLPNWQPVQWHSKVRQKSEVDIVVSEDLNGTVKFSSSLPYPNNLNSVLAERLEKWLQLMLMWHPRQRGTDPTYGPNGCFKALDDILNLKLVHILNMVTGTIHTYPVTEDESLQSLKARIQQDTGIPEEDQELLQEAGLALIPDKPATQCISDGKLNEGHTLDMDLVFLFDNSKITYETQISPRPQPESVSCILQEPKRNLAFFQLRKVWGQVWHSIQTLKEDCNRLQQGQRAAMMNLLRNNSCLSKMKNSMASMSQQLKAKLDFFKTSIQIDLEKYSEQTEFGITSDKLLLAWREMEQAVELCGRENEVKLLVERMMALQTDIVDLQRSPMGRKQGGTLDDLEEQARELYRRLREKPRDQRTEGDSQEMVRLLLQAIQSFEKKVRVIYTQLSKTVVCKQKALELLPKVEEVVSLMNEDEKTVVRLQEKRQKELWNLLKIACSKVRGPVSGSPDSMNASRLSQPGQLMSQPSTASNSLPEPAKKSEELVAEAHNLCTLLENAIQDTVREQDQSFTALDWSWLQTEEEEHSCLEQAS
As to conditions: at 1 µM.

The target of assay [2] is T2, Tyrosine-protein kinase Mer (Homo sapiens) (UniProt Q12866).
T2 sequence (whole entry): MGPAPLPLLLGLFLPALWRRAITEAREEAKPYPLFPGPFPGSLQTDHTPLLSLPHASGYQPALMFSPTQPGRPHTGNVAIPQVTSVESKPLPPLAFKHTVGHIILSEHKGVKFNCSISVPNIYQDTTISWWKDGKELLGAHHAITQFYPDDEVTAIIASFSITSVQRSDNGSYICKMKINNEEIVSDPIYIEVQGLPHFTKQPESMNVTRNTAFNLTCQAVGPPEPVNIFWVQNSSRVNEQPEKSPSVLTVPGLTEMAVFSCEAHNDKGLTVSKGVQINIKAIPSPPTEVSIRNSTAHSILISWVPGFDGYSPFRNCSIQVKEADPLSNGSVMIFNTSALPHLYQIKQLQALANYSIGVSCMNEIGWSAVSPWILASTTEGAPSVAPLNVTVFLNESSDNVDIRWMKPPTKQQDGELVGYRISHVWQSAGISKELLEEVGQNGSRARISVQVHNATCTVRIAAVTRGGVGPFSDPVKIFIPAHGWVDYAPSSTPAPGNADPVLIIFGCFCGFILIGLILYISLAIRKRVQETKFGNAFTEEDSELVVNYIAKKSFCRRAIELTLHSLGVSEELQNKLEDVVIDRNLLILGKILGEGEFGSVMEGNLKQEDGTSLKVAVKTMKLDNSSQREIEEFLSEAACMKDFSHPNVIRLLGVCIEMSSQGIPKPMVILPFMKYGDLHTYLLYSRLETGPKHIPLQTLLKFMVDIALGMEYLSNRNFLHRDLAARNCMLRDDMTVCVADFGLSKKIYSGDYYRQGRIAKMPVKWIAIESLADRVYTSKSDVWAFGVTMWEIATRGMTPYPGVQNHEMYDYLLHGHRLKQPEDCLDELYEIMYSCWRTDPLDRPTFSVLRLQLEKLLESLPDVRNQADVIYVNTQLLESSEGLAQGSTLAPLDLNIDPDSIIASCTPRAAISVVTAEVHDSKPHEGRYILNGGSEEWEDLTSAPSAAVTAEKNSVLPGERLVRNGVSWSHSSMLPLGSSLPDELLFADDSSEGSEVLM
As to conditions: at 10 µM.

Assay [3] deals with T3, Serine/threonine-protein kinase TBK1 (Homo sapiens) (UniProt Q9UHD2).
T3 sequence (whole entry): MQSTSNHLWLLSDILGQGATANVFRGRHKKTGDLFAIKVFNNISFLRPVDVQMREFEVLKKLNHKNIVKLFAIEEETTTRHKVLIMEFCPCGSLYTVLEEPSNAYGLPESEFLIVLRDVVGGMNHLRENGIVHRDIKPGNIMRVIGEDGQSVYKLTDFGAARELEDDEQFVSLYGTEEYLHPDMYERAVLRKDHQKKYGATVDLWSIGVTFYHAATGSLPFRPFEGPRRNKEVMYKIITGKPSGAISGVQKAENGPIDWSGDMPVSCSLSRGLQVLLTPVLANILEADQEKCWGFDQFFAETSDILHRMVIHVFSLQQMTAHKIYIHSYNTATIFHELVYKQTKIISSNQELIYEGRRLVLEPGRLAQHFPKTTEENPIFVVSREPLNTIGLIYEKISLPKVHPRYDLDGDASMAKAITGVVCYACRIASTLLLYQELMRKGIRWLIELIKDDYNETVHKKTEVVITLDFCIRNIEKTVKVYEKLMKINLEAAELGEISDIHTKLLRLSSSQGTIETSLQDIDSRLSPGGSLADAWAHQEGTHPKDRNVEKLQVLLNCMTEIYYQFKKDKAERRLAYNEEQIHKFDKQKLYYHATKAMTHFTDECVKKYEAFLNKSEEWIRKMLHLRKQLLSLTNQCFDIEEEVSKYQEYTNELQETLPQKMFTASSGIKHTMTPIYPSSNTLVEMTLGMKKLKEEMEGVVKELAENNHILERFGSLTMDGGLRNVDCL
The conditions noted are these: at 1 µM.

SMILES strings stand for the structures. Where “and” joins values, the source holds several entries; their conditions need not be identical. Identical values can stand only once.

A word on the inhibition: it is the change of the read-out against control, counted positive when it falls.

On to `O=C1Nc2ccccc2/C1=C/Nc1ccc(-n2cncn2)cc1`, for which the inhibition in assay [1] is -5% and -4%; in assay [2], 10%; in assay [3], 23% and 27%.
With `COc1cc(N2CCN(C(C)C)CC2)ccc1Nc1nc(Nc2cccc(F)c2C(=O)O)c2cc[nH]c2n1`, the inhibition in assay [1] was -4% and -3%; in assay [2], -2%; in assay [3] it was -3% and 0%.
Regarding `NS(=O)(=O)c1cccc(N/C=C2\C(=O)Nc3ccccc32)c1`, the inhibition in assay [1] was -4% and -1%; in assay [2], 0%; in assay [3] it was 31% and 38%.
For the compound `CN(C)c1cc2c(Nc3ccc4c(cnn4Cc4ccccc4)c3)ncnc2cn1`, the inhibition was -3% and -2% in assay [1]; 10% in assay [2]; 2% and -3% in assay [3].
In the case of `CC(=O)Nc1cccc(C#Cc2cncnc2Nc2ccc(OCc3cccc(F)c3)c(Cl)c2)c1`, the inhibition in assay [1] is -2% and 0%; in assay [2] it was -1%; in assay [3] it was -6% and -7%.
For `NS(=O)(=O)c1ccc(N/N=C2\C(=O)Nc3ccc(-c4cnco4)cc32)cc1`, the inhibition was -2% in assay [1]; 16% in assay [2]; 61% and 57% in assay [3].
As for `CCOc1ccc2c(-c3ccnc(Nc4cccc(C(F)(F)F)c4)n3)cnn2n1`, the inhibition is -3% and -6% in assay [1]; -2% in assay [2]; 55% and 52% in assay [3].
Consider `ON=C1CCc2cc(-c3nc(C4CCNCC4)[nH]c3-c3ccncc3)ccc21`, for which the inhibition was 6% and 3% in assay [1]; 38% in assay [2]; 1% in assay [3].
Turning to `O=C1Nc2ccc(C(=O)c3ccco3)cc2C1=Cc1cc(Cl)c(O)c(Cl)c1`, the inhibition in assay [1] was -8% and -7%; in assay [2], -1%; in assay [3] it was 86% and 87%.
`COc1ccc(-c2cc3c(N)ncnc3o2)cc1`: the inhibition in assay [1] was -5% and 1%; in assay [2] it was 5%; in assay [3], 1% and 2%.
Turning to `Nc1ccc(C#Cc2cncnc2Nc2ccc(OCc3cccc(F)c3)c(Cl)c2)cc1`, the inhibition is 7% and -3% in assay [1]; 58% in assay [2]; 1% and 2% in assay [3].
Turning to `NC(=O)c1ccc2c(-c3ccnc(NCCCO)n3)c(-c3ccc(F)cc3)nn2c1`, the inhibition is -2% and -1% in assay [1]; -4% in assay [2]; 3% and 1% in assay [3].
Take `CCn1c(-c2nonc2N)nc2c(C#CC(C)(C)O)nc(OC[C@H](N)c3ccccc3)cc21`: the inhibition in assay [1] is -4% and 1%; in assay [2] it was -2%; in assay [3], 8% and 11%.
With `COc1ccc(-c2nn3ncccc3c2-c2ccnc(Nc3ccc(Cl)c(C(F)(F)F)c3)n2)cc1`, the inhibition was -4% and -5% in assay [1]; 13% in assay [2]; -6% and -3% in assay [3].
As to `N#Cc1ccc2c(-c3ccnc(NC4CC4)n3)c(-c3ccc(F)cc3)nn2c1`, the inhibition in assay [1] was 4% and -1%; in assay [2] it was 24%; in assay [3] it was -1%.

These data come from ChEMBL document CHEMBL2007661, “Compounds: GSK PKIS; Assays: UNC Frye lab” (2012).
